From paper PMC7471006, “A Simplified Quantitative Real-Time PCR Assay for Monitoring SARS-CoV-2 Growth in Cell Culture” (mSphere, 2020)
Where two headings read alike, the source gives them in different places.

Key:
SARS-CoV-2 = experiment: SYBR green-based qRT-PCR of SARS-CoV-2 RNA in supernatants of infected Vero E6 cells (compound screen); format: cell-based; conditions: for Effect on SARS-CoV-2 viral RNA in supernatants / SARS-CoV-2 replication: MOI 0.01, 24 hpi, result in words; for IC50: Severe acute respiratory syndrome coronavirus 2, Vero C1008, MOI 0.01, 24 hpi, read-out: IC50 (50% inhibitory concentration), SARS-CoV-2 viral RNA in supernatants
Vero E6 cells [1] = test system: Vero E6 cells
Vero E6 cells [2] = experiment: RealTime-Glo MT cell viability assay (compound cytotoxicity); conditions: parallel plates, result in words

Row | SMILES | Effect on SARS-CoV-2 viral RNA in supernatants / SARS-CoV-2 replication (SARS-CoV-2) | Compound cytotoxicity (Vero E6 cells [1]) | Compound cytotoxicity (Vero E6 cells [2]) | Potency on SARS-CoV-2 viral RNA in supernatants compared with 24 hpi (SARS-CoV-2; 48 hpi, data not shown) | IC50 (SARS-CoV-2)
1 | Cc1nc2ccc(Br)cc2c(-c2ccc(Cl)cc2)c1C(OC(C)(C)C)C(=O)O (stereo not shown) [ALLINI-2] | modestly inhibited | without apparent cytotoxicity | – | – | –
2 | CCN(c1nc(N)c(C(=O)NC(=N)N)nc1Cl)C(C)C [EIPA, ethylisopropylamiloride] | substantially decreased viral RNA in supernatants at subcytotoxic levels | – | – | – | –
3 | CC(C)CN(C[C@@H](O)[C@H](Cc1ccccc1)NC(=O)O[C@H]1CCOC1)S(=O)(=O)c1ccc(N)cc1 [amprenavir] | modestly inhibited | – | without apparent cytotoxicity | – | –
4 | Cc1cccc(/C=N/Nc2cc(N3CCOCC3)nc(OCCc3ccccn3)n2)c1 [apilimod] | substantially decreased | minimal cytotoxicity | – | less potent | 12 nM
5 | Cc1ccnc2c1NC(=O)c1cccnc1N2C1CC1 [nevirapine] | modestly inhibited | – | without apparent cytotoxicity | – | –
6 | CCC(CC)COC(=O)[C@H](C)N[P@](=O)(OC[C@H]1O[C@@](C#N)(c2ccc3c(N)ncnn23)[C@H](O)[C@@H]1O)Oc1ccccc1 [remdesivir] | substantially decreased | – | – | – | 2.8 µg/mL
